We go through 6 molecules from patent US4515806A, “Furan derivatives and addition salts thereof pharmaceutical compositions and the therapeutical applications thereof” (priority 1982, dated 1985).

One data set in a line: Solubility (in words). Format: physicochemical.
Data set [1] relates to gastric juices. The data set is described as follows: Ligature of pylorus, intravenous treatment (Table B-1). Format: in vivo, Male Wistar rats. To be noted: for Volume of gastric juice, percentage decrease relative to control / pH of gastric juice, percentage increase relative to control / Total acidity (titration with 0,1N NaOH), percentage decrease relative to control: 10 mg/kg i.v., 3 h after ligature. As for the experimental part:
(§1) The method of […] et al. (J. Pharmac. Exp. […] Male Wistar rats, weighing from 250 to 300 grams were used. […] The rats were anesthetised with ethyl ether, a laparotomy was performed and the pylorus was ligatured. The abdominal incision was then sewn. Treatment was effected: (B-1) intravenously, through the femoral vein. (B-2) intraduodenally, prior to sewing the abdominal incision. Three hours after ligature of the pylorus, the volumen of gastric juices was measured, the pH was determined by a Beckman Century SS-1 pH-meter.

In data set [2] the test system is gastric juices. Put plainly: Ligature of pylorus, intraduodenal treatment (Table B-2). The class given is in vivo, Male Wistar rats. Here is the method:
as §1

Another data set has as its target T1, histamine H2 receptors (Rattus norvegicus, UniProt P25102).
T1 construct: the uterine horn was removed and suspended in a De Jalon solution in an organ bath; from tissue; host or cells: rat uterine horn (rats in estrus, stilbestrol-treated)
Conditions: for EC50: read-out: effective concentration for producing a 50% antagonism of the histamine response (EC50); for inhibition at 0.0434 µM / inhibition at 0.434 µM / inhibition at 4.34 µM / inhibition at 43.4 µM: rat, read-out: Antagonism (% reduction) of the histamine induced response in KCl contracted rat uterus. As for the experimental part: Rats in estrus were used and were administered 100 mcg of stilbestrol by intramuscular (i.m.) injection 30 hours before removing the uterus. On the day of the experiment, the uterine horn was removed and suspended in a De Jalon solution in an organ bath, held at 28° C. and aerated with a flow of 95% O2 and 5% CO2. Thereafter a sustained uterine contraction was induced by the addition of a KCl solution to provide a concentration in the organ bath of 4.2 mg/ml, namely, 10 times that of the De Jalon serum. The uterus was caused to relax with the addition of the amount of histamine required to obtain a good response.

A further data set deals with rats. The data set is described as follows: Acute toxicity in rats.
A short description of another data set: in vivo. To be noted: mouse, iv.
Where [3] appears, read: 1 mg/kg intraduodenal, lot of 4 rats.
The mark [4] stands for this setting: 1 mg/kg intraduodenal, lot of 5 rats.
Setting [5] is: 3 mg/kg intraduodenal, 4 or 5 rats.
[6] abbreviates: 10 mg/kg intraduodenal, first lot (4 or 5 rats).
The mark [7] stands for this setting: 10 mg/kg intraduodenal, lot of 8 rats.
The mark [8] stands for this setting: 10 mg/kg intraduodenal, second lot (4 or 5 rats).

Where two headings read alike, the source gives them in different places.

For orientation: LD50 means the dose expected to kill half of the subjects tested. Read a high LD50 as lower toxicity.

T1 sequence (P25102 whole entry): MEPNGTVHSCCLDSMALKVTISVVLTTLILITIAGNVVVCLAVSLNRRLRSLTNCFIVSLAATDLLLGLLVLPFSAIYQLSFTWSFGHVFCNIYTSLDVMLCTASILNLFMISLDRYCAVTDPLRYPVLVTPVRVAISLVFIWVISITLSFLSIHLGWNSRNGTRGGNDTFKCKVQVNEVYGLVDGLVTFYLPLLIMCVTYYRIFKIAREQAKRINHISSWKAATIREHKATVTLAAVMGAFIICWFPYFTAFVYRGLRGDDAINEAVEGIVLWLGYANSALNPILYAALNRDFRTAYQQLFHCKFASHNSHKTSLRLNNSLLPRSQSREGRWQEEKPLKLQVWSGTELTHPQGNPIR

As to `O=[N+]([O-])C=C(NCCO)NCCO` [Example 2, N,N'-bis(2-hydroxyethyl)-2-nitro-1,1-ethenediamine], the solubility entry is listed as “slightly soluble” in the data set “Solubility (in words)” (ethanol), “slightly soluble” in “Solubility (in words)” (methanol) and “soluble” in “Solubility (in words)” (water).

As for `CNC(=C[N+](=O)[O-])NCCSCc1ccc(CN(C)C)o1` [Ranitidine, ranitidine], the “Volume of gastric juice, percentage decrease relative to control” value in the data set on gastric juices [1] (first lot (2 or 3 rats)) amounted to 68.1%; with gastric juices [1] (lot of 5 rats) it was 61.4%; with gastric juices [1] (lot of 8 rats), 21%; in the data set on gastric juices [2] (setting [3]) it was 46.2%; with gastric juices [2] (setting [5]) it was 5%; in the data set with gastric juices [2] (setting [6]), 30%. In addition, the “Volume of gastric juice, percentage decrease relative to control” value with gastric juices [2] (setting [7]) amounted to 12%; in the data set on gastric juices [2] (setting [8]), 58%; in the data set on gastric juices [2] (25 mg/kg intraduodenal, 5 rats), 55%. Also, the “pH of gastric juice, percentage increase relative to control” value came out at 200.8% in the data set with gastric juices [1] (first lot (2 or 3 rats)); 88.5% in the data set with gastric juices [1] (lot of 5 rats); 104.2% in the data set on gastric juices [1] (lot of 8 rats); 17% in the data set on gastric juices [2] (setting [3]); 60% with gastric juices [2] (setting [4]); 46% in the data set on gastric juices [2] (setting [5]). For the same molecule, the “pH of gastric juice, percentage increase relative to control” value in the data set with gastric juices [2] (setting [6]) was 95%; in the data set on gastric juices [2] (setting [7]), 97.4%; in the data set with gastric juices [2] (setting [8]) it was 202%; in the data set with gastric juices [2] (25 mg/kg intraduodenal, 5 rats) it was 210%. The “Total acidity (titration with 0,1N NaOH), percentage decrease relative to control” value with gastric juices [1] (lot of 5 rats) is on record as 81.8%; with gastric juices [1] (lot of 8 rats) it was 72.7%; in the data set with gastric juices [2] (setting [3]), 38%; in the data set with gastric juices [2] (setting [4]), 18%; with gastric juices [2] (setting [5]), 47%; with gastric juices [2] (setting [6]), 66%. The “Total acidity (titration with 0,1N NaOH), percentage decrease relative to control” value in the data set with gastric juices [2] (setting [7]) worked out at 50%; with gastric juices [2] (setting [8]), 75%; in the data set on gastric juices [2] (25 mg/kg intraduodenal, 5 rats), 83%. In addition, in the data set on gastric juices [2] (setting [4]), the “Volume of gastric juice, percentage increase relative to control” value came to 6%. Further, the EC50 on histamine H2 receptors (rat uterus, KCl contracted) was found to be 8.25 µM. At histamine H2 receptors, the inhibition at 0.0434 µM was found to be 0%. Moreover, the inhibition at 0.434 µM on histamine H2 receptors amounted to 20%. The inhibition at 4.34 µM at histamine H2 receptors is 42.2%. Further, at histamine H2 receptors, the inhibition at 43.4 µM was 73.8%.

Take `CN(C)Cc1ccc(CSCCNC(=C[N+](=O)[O-])NCCO)o1.Cl` [Example 1, (b), N-[2-[[(5-[(dimethylamino)methyl]-2-furanyl)methyl]thio]ethyl]-N'-(2-hydroxyethyl)-2-nitro-1,1-ethenediamine hydrochloride]: the acute toxicity result in the data set with rats is on record as “low”. In the data set with gastric juices [1] (intravenous), the “activity (reduction in volume, increase in pH of gastric juice)” value is reported as “very high”; the “activity compared with cimetidine” value is “more active than cimetidine”; the “activity compared with ranitidine” value is given as “rather higher”. Further, the solubility result in the data set “Solubility (in words)” (methanol) was “soluble”. In “Solubility (in words)” (water), the solubility result is “soluble”. In the data set with gastric juices [2] (intraduodenal), the “activity (reduction in volume, increase in pH of gastric juice)” value is recorded as “very high”; the “activity compared with cimetidine” value is on record as “more active than cimetidine”; the “activity compared with ranitidine” value is “practically the same activity”. In “in vivo”, this molecule gave an LD50 of 200 mg/kg. In the data set on mice, the acute toxicity entry was “low”. Also, the “activity compared with ranitidine” value at histamine H2 receptors (rat uterus H2 receptors) is “more active than ranitidine”. For the same molecule, at histamine H2 receptors, the inhibition at 0.0434 µM came out at 0%, the inhibition at 0.434 µM was found to be 22.2%, the inhibition at 4.34 µM amounted to 47.3% and the inhibition at 43.4 µM worked out at 81.8%. Moreover, the EC50 at histamine H2 receptors was found to be 5.5 µM.

As for `CN/C(=N/CCSCc1nc[nH]c1C)NC#N` [Cimetidine, cimetidine], the “Volume of gastric juice, percentage decrease relative to control” value in the data set on gastric juices [1] (first lot (2 or 3 rats)) came to 41.0%; in the data set on gastric juices [1] (lot of 5 rats) it was 23.2%; with gastric juices [1] (lot of 8 rats), 7.3%; with gastric juices [2] (setting [3]), 14%; in the data set with gastric juices [2] (setting [5]), 23%; with gastric juices [2] (setting [6]), 28%. Besides, the “Volume of gastric juice, percentage decrease relative to control” value worked out at 6.6% in the data set on gastric juices [2] (setting [7]); 51% with gastric juices [2] (setting [8]); 35.4% with gastric juices [2] (25 mg/kg intraduodenal, 5 rats). The “pH of gastric juice, percentage increase relative to control” value in the data set on gastric juices [1] (first lot (2 or 3 rats)) was 50.4%; in the data set with gastric juices [1] (lot of 8 rats), 64.9%; with gastric juices [2] (setting [3]), 46%; with gastric juices [2] (setting [5]), 29%; in the data set with gastric juices [2] (setting [6]) it was 50%; with gastric juices [2] (setting [7]) it was 100%. Also, the “pH of gastric juice, percentage increase relative to control” value in the data set with gastric juices [2] (setting [8]) is listed as 178%; in the data set on gastric juices [2] (25 mg/kg intraduodenal, 5 rats) it was 110%. In addition, the “Total acidity (titration with 0,1N NaOH), percentage decrease relative to control” value amounted to 11.7% in the data set on gastric juices [1] (lot of 5 rats); 52.7% in the data set with gastric juices [1] (lot of 8 rats); 48% in the data set with gastric juices [2] (setting [3]); 48% in the data set on gastric juices [2] (setting [5]); 84% in the data set on gastric juices [2] (setting [6]); 40% in the data set on gastric juices [2] (setting [7]). Further, the “Total acidity (titration with 0,1N NaOH), percentage decrease relative to control” value in the data set on gastric juices [2] (setting [8]) was found to be 82%; in the data set on gastric juices [2] (25 mg/kg intraduodenal, 5 rats), 51.5%.

Turning to `CN(C)Cc1ccc(CSCCNC(=C[N+](=O)[O-])NCCO)o1` [Example 1, (a), N-[2-[[(5-[(dimethylamino)methyl]-2-furanyl)methyl]thio]ethyl]-N'-(2-hydroxyethyl)-2-nitro-1,1-ethenediamine], the solubility result in the data set “Solubility (in words)” (chloroform) and in “Solubility (in words)” (methanol) was “soluble” each time.

On to `NCCc1c[nH]cn1` [histamine], for which the inhibition at 54.3 µM at histamine H2 receptors (read-out: inhibition of the contraction caused by KCl) was 74.5%.
